Patent publication US20120009240A1, “Films for Delivery of a Therapeutic Agent” (priority 2010, published 2012)
Counter-ions that a name gives are not always drawn.

Test: Saturation and payload limits for dip coating a polyester mesh (Parietex monofilament mesh) with bupivacaine HCl solution (FIG. 8)
Assay type: physicochemical
Settings: polyester mesh without a polymer film
Source text: Further, it is believed that spraying films on a medical device (e.g., mesh) compared to other conventional methods, such as dip coating, provides increased loading of the therapeutic agent.
More particularly FIG. 8 illustrates the loading limits for a polyester mesh (Parietex™ monofilament mesh) without a polymer film.

saturation and payload limits for dip coating (solution in MeOH): 12 % w/v
saturation and payload limits for dip coating (solution in water): 5 % w/v
SMILES: CCCCN1CCCCC1C(=O)Nc1c(C)cccc1C (centres unmarked) [bupivacaine hydrochloride]
